From ChEMBL document CHEMBL4507262, “Data for DCP probe A-1596586” (2021)
Calls of active or inactive are those of the source. The calls are words filed in the database; no cut-off is given here.

Key:
[1] = molecular target: Serine/threonine-protein kinase TAO1 (Homo sapiens) (UniProt Q7L7X3); conditions: Compound concentration 1000.0 nM
[2] = molecular target: Insulin receptor-related protein (Homo sapiens) (UniProt P14616); conditions: Compound concentration 1000.0 nM
[3] = molecular target: Prostaglandin G/H synthase 2 (Homo sapiens) (UniProt P35354); experiment: COX2(h) Eurofins-Cerep enzyme and uptake assay; conditions: Compound concentration 10.0 uM
[4] = molecular target: Hormonally up-regulated neu tumor-associated kinase (Homo sapiens) (UniProt P57058); conditions: Compound concentration 1000.0 nM
[5] = molecular target: Cyclin-dependent kinase 7 (Homo sapiens) (UniProt P50613); conditions: Compound concentration 1000.0 nM
[6] = molecular target: Myosin light chain kinase (Homo sapiens) (UniProt Q32MK0); conditions: Compound concentration 1000.0 nM
[7] = molecular target: Histamine H4 receptor (Homo sapiens) (UniProt Q9H3N8); conditions: Compound concentration 10.0 uM
[8] = GPCRScan assay: inhibition of GABA/PBR; parameters: species or system Rattus norvegicus; radioligand conc. used [nm] 0.3 – 2.0, parental cells brain tissue
[9] = molecular target: Protein kinase C epsilon type (Homo sapiens) (UniProt Q02156); conditions: Compound concentration 1000.0 nM
[10] = molecular target: GABA-A receptor; anion channel (Rattus norvegicus) (UniProt O09028+P15431+P18506+P18508+P19969+P20236+P23574+P23576+P28471+P28473+P30191+P62813+P63079+P63138+Q91ZM7+Q9ES14); experiment: BZD (central) Eurofins-Cerep binding assay; type: protein-complex assay; parameters: ligand concentration 0.4 nM; conditions: filed as agonist, Compound concentration 10.0 uM
[11] = species: Rattus norvegicus; experiment: SKCa channel Eurofins-Cerep binding assay; parameters: ligand concentration 0.007 nM; conditions: filed as antagonist, Compound concentration 10.0 uM
[12] = molecular target: Tyrosine-protein kinase HCK (Homo sapiens) (UniProt P08631); conditions: Compound concentration 1000.0 nM
[13] = molecular target: Homeodomain-interacting protein kinase 2 (Homo sapiens) (UniProt Q9H2X6); conditions: Compound concentration 1000.0 nM
[14] = molecular target: Tyrosine-protein kinase CSK (Homo sapiens) (UniProt P41240); conditions: Compound concentration 1000.0 nM
[15] = molecular target: ALK tyrosine kinase receptor (Homo sapiens) (UniProt Q9UM73); conditions: Compound concentration 1000.0 nM
[16] = molecular target: Tyrosine-protein kinase FRK (Homo sapiens) (UniProt P42685); conditions: Compound concentration 1000.0 nM
[17] = molecular target: Phosphatidylinositol 4-kinase beta (Homo sapiens) (UniProt Q9UBF8); conditions: Compound concentration 1000.0 nM
[18] = molecular target: Mitogen-activated protein kinase kinase kinase kinase 5 (Homo sapiens) (UniProt Q9Y4K4); conditions: Compound concentration 1000.0 nM
[19] = molecular target: Mast/stem cell growth factor receptor Kit (Homo sapiens) (UniProt P10721); conditions: Compound concentration 1000.0 nM
[20] = molecular target: T1, Alpha-2B adrenergic receptor (Homo sapiens) (UniProt P18089); experiment: Alpha2B (h) Eurofins-Cerep binding assay; parameters: ligand concentration 2.5 nM; conditions: filed as antagonist, Compound concentration 10.0 uM
T1 sequence (whole entry): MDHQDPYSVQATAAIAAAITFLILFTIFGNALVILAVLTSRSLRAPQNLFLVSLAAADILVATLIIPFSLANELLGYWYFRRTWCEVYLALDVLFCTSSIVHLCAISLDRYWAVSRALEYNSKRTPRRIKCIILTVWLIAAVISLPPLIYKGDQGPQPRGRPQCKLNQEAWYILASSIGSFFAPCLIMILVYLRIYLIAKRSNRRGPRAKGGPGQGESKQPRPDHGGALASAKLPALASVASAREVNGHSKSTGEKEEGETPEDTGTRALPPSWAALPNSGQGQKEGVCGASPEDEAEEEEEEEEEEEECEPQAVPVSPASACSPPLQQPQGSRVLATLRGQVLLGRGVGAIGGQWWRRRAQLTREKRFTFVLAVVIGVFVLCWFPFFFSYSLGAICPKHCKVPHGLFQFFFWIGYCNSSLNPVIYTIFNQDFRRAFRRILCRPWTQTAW

[21] = molecular target: Serine/threonine-protein kinase 10 (Homo sapiens) (UniProt O94804); conditions: Compound concentration 1000.0 nM
[22] = molecular target: Tyrosine-protein kinase ABL1 (Homo sapiens) (UniProt P00519); conditions: Compound concentration 1000.0 nM
[23] = molecular target: Cystic fibrosis transmembrane conductance regulator (Homo sapiens, UniProt P13569); experiment: Plasma membrane-expressed enzyme acceptor protein (EA-MEM) assay
[24] = molecular target: Serine/threonine-protein kinase NLK (Homo sapiens) (UniProt Q9UBE8); conditions: Compound concentration 1000.0 nM
[25] = molecular target: Dual specificity testis-specific protein kinase 1 (Homo sapiens) (UniProt Q15569); conditions: Compound concentration 1000.0 nM
[26] = molecular target: Muscarinic acetylcholine receptor M3 (Homo sapiens) (UniProt P20309); experiment: M3 (h) Eurofins-Cerep binding assay; parameters: ligand concentration 0.2 nM; conditions: filed as antagonist, Compound concentration 10.0 uM
[27] = molecular target: LIM domain kinase 1 (Homo sapiens) (UniProt P53667); conditions: Compound concentration 1000.0 nM
[28] = molecular target: Cyclin-dependent kinase 9 (Homo sapiens) (UniProt P50750); conditions: Compound concentration 1000.0 nM
[29] = molecular target: Cyclin-dependent kinase 2 (Homo sapiens) (UniProt P24941); conditions: Compound concentration 1000.0 nM
[30] = molecular target: 5-hydroxytryptamine receptor 7 (Homo sapiens) (UniProt P34969); experiment: 5-HT7 (h) Eurofins-Cerep binding assay; parameters: ligand concentration 4 nM; conditions: filed as agonist, Compound concentration 10.0 uM
[31] = molecular target: Mitogen-activated protein kinase kinase kinase 3 (Homo sapiens) (UniProt Q99759); conditions: Compound concentration 1000.0 nM
[32] = molecular target: Mitogen-activated protein kinase 11 (Homo sapiens) (UniProt Q15759); conditions: Compound concentration 1000.0 nM
[33] = molecular target: 1-phosphatidylinositol 3-phosphate 5-kinase (Homo sapiens) (UniProt Q9Y2I7); conditions: Compound concentration 1000.0 nM
[34] = molecular target: Rho-associated protein kinase 1 (Homo sapiens) (UniProt Q13464); conditions: Compound concentration 1000.0 nM
[35] = molecular target: Tyrosine-protein kinase Lck (Homo sapiens) (UniProt P06239); conditions: Compound concentration 1000.0 nM
[36] = molecular target: Insulin receptor (Homo sapiens) (UniProt P06213); conditions: Compound concentration 1000.0 nM
[37] = molecular target: Serine/threonine-protein kinase/endoribonuclease IRE1 (Homo sapiens) (UniProt O75460); conditions: Compound concentration 1000.0 nM
[38] = molecular target: Myosin light chain kinase, smooth muscle (Homo sapiens) (UniProt Q15746); conditions: Compound concentration 1000.0 nM
[39] = molecular target: Ephrin type-A receptor 7 (Homo sapiens) (UniProt Q15375); conditions: Compound concentration 1000.0 nM

Chain of Dual specificity testis-specific protein kinase 1 (Homo sapiens) (Q15569 whole entry, looked up): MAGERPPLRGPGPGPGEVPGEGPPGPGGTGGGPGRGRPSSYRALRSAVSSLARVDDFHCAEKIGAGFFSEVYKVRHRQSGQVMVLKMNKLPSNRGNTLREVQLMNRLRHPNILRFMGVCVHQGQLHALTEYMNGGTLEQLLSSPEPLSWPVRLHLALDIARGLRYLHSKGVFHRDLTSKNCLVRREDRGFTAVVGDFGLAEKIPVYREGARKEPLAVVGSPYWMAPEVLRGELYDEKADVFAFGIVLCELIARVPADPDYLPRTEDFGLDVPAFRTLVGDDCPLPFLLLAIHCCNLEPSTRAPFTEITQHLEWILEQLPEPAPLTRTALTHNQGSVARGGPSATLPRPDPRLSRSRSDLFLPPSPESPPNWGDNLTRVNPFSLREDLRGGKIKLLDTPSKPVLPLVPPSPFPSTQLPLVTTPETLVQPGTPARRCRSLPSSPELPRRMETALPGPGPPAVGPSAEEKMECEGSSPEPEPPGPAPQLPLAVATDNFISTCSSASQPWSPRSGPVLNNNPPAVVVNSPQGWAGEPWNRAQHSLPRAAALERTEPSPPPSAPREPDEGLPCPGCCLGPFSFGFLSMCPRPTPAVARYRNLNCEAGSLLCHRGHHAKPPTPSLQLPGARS
Chain of Phosphatidylinositol 4-kinase beta (Homo sapiens) (Q9UBF8 2-816 limits assumed): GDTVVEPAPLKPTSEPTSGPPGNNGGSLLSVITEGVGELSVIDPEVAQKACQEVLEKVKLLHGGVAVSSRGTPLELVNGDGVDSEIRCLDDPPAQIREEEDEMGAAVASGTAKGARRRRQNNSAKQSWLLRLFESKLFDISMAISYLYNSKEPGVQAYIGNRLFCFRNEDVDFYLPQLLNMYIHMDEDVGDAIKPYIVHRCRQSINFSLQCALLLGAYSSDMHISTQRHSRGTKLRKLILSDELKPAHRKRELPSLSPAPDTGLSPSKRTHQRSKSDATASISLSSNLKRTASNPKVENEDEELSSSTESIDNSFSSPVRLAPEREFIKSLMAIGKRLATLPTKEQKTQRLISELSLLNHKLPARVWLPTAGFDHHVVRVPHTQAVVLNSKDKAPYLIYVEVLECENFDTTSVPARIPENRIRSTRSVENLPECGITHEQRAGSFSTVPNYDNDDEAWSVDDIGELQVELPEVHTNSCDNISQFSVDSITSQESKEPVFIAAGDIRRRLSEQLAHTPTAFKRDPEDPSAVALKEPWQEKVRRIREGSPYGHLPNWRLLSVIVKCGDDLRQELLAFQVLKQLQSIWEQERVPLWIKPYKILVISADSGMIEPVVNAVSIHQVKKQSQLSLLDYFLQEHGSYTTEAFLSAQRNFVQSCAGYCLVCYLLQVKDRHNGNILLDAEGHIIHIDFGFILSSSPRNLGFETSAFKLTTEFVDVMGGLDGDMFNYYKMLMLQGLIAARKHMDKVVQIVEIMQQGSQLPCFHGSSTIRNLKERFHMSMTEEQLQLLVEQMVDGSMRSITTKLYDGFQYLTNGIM
Chain of Cystic fibrosis transmembrane conductance regulator (P13569 whole entry): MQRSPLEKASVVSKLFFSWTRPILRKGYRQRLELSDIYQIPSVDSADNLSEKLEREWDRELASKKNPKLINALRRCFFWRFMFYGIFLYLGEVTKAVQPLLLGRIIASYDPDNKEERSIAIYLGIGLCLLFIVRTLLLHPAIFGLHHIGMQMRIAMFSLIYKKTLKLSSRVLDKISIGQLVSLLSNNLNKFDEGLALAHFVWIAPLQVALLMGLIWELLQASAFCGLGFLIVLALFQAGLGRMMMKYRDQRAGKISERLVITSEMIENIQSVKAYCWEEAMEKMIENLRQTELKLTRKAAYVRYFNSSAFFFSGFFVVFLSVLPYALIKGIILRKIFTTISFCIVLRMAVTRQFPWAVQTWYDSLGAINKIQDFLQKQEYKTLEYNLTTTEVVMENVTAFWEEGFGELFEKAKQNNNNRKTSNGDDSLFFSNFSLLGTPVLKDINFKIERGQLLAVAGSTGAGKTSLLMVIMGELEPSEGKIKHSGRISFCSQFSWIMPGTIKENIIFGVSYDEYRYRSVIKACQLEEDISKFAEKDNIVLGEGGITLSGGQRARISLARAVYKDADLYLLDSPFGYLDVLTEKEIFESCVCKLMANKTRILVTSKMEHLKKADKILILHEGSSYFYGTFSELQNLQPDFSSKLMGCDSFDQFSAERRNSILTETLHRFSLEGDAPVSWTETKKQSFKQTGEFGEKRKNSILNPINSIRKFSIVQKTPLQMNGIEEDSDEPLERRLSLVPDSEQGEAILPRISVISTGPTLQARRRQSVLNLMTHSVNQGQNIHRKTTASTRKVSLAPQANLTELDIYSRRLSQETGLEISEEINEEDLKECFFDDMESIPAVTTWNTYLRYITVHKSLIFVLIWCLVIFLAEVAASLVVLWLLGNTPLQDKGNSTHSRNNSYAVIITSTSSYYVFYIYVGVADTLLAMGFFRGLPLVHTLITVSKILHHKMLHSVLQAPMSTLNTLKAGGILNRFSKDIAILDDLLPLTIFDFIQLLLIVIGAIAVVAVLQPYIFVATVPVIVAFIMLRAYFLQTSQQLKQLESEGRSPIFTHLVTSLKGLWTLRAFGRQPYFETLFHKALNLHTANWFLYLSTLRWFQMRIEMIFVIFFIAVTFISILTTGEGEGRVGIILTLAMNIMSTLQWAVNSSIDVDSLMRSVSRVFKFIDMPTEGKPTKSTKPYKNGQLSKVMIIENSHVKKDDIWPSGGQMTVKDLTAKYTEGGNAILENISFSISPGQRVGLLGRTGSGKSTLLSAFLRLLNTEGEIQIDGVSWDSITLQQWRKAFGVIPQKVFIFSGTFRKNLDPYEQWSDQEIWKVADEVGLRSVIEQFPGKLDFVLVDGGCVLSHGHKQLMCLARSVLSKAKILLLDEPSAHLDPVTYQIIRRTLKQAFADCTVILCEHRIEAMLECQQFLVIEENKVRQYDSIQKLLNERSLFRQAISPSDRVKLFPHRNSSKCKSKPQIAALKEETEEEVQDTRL
Chain of Serine/threonine-protein kinase TAO1 (Homo sapiens) (Q7L7X3 whole entry): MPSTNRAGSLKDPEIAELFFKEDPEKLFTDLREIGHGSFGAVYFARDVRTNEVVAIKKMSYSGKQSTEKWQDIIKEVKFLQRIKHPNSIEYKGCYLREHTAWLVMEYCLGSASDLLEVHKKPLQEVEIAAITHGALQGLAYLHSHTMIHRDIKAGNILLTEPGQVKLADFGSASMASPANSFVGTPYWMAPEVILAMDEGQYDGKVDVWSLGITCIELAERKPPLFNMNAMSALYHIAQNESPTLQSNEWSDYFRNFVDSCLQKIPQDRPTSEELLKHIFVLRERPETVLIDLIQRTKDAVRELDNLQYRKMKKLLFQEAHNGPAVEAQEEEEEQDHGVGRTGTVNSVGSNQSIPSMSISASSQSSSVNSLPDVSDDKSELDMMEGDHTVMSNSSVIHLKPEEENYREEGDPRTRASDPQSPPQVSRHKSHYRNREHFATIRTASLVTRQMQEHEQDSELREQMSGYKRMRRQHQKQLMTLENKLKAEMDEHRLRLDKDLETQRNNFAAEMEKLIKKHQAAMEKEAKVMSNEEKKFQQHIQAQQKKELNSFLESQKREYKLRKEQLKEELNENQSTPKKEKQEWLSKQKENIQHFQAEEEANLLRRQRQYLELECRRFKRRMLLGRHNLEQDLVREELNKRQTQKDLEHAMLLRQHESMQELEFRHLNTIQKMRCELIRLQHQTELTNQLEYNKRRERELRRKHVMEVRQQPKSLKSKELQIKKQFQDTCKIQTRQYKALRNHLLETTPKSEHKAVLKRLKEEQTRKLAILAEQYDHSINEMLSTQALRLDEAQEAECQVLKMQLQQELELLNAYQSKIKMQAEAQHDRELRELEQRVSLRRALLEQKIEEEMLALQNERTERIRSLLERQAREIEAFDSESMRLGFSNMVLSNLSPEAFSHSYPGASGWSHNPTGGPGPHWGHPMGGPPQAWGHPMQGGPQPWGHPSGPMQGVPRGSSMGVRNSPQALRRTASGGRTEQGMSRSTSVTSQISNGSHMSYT
Chain of Prostaglandin G/H synthase 2 (Homo sapiens) (P35354 whole entry): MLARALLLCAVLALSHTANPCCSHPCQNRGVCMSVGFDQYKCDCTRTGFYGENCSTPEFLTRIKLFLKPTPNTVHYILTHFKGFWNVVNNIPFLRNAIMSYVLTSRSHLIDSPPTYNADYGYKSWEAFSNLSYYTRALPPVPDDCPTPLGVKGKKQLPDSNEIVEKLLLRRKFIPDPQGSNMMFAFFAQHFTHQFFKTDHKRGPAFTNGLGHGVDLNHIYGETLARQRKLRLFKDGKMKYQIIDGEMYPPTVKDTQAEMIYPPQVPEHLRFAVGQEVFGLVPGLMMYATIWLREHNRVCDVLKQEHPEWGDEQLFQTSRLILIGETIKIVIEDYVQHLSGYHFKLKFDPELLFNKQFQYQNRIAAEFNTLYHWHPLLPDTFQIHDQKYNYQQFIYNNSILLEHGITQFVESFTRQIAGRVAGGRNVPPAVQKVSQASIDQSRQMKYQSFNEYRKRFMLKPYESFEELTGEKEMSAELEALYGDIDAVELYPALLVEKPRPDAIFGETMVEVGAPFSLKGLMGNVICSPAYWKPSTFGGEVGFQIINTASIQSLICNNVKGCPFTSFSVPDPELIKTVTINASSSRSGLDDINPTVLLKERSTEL
Chain of Tyrosine-protein kinase HCK (Homo sapiens) (P08631 2-526 limits assumed): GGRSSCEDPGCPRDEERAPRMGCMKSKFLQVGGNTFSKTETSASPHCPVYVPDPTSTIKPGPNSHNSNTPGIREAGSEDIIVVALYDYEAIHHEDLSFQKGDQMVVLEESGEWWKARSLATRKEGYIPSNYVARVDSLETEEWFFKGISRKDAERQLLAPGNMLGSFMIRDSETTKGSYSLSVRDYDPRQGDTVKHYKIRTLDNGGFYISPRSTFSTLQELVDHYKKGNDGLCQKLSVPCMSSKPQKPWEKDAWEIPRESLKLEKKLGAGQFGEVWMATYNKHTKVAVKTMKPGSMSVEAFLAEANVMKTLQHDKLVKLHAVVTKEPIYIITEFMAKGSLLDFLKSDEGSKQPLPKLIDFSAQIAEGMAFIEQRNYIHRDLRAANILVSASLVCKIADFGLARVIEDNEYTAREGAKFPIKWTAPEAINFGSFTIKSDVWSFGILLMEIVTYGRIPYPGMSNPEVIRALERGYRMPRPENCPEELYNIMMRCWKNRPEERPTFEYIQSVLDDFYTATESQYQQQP

SMILES	residual activity [1] [%]	residual activity [2] [%]	% Inhibition of Control Values (Mean n=2) [3] [%]	residual activity [4] [%]	residual activity [5] [%]	residual activity [6] [%]	inhibition [7] [%]	Ki [8] [nM]	pKi [8]	residual activity [9] [%]	% Inhibition of Control Specific Binding (Mean n=2) [10] [%]	% Inhibition of Control Specific Binding (Mean n=2) [11] [%]	residual activity [12] [%]	residual activity [13] [%]	residual activity [14] [%]	residual activity [15] [%]	residual activity [16] [%]	residual activity [17] [%]	residual activity [18] [%]	residual activity [19] [%]	other results
COc1ccc2c(c1)O[C@H](c1ccc(OC)c(OC)c1)C[C@@H]2NC(=O)C1(c2ccc3c(c2)OC(F)(F)O3)CC1 [A-1596584]	100	100	-17.9	72	85	95	6.21	218	6.66	90	-49.6	4	100	98	100	100	100	81	100	100	% Inhibition of Control Specific Binding (Mean n=2) [20]: 36.4%; residual activity [21]: 100%; residual activity [22]: 100%; EC50 [23]: 3.9 µM (not active); residual activity [24]: 100%; residual activity [25]: 98%; % Inhibition of Control Specific Binding (Mean n=2) [26]: -12.8%; residual activity [27]: 98%; residual activity [28]: 78%; residual activity [29]: 100%; % Inhibition of Control Specific Binding (Mean n=2) [30]: -6.4%; residual activity [31]: 87%; residual activity [32]: 93%; residual activity [33]: 89%; residual activity [34]: 84%; residual activity [35]: 100%; residual activity [36]: 82%; residual activity [37]: 100%; residual activity [38]: 100%; residual activity [39]: 100%
COc1ccc2c(c1)O[C@@H](c1ccc(OC)c(OC)c1)C[C@H]2NC(=O)C1(c2ccc3c(c2)OC(F)(F)O3)CC1 [A-1596586]	93	100	-9.3	100	80	95	-2.97	19.6	7.71	91	-12.3	2.2	88	96	87	100	100	73	100	86	% Inhibition of Control Specific Binding (Mean n=2) [20]: 63.5%; residual activity [21]: 88%; residual activity [22]: 86%; EC50 [23]: 0.035 µM (active); residual activity [24]: 100%; residual activity [25]: 96%; % Inhibition of Control Specific Binding (Mean n=2) [26]: -3.3%; residual activity [27]: 100%; residual activity [28]: 89%; residual activity [29]: 99%; % Inhibition of Control Specific Binding (Mean n=2) [30]: -6.3%; residual activity [31]: 84%; residual activity [32]: 92%; residual activity [33]: 100%; residual activity [34]: 89%; residual activity [35]: 100%; residual activity [36]: 79%; residual activity [37]: 100%; residual activity [38]: 85%; residual activity [39]: 86%
